Measured values as given in ChEMBL document CHEMBL3627698, “Selective inhibition of PARP10 using a chemical genetics strategy” (Bioorg Med Chem Lett, 2015).
pIC50: −log10 of the molar value.

How the values were obtained:
[1] = target: Protein mono-ADP-ribosyltransferase PARP10 (Homo sapiens, UniProt Q53GL7, L926G); experiment: Inhibition of PARP-10 L926G mutant (unknown origin) mediated ADP-ribosylation of SRPK2 by fluorescence analysis using 3 uM SRPK2 as a substrate
[2] = target: Poly [ADP-ribose] polymerase 1 (Homo sapiens, UniProt P09874); experiment: Inhibition of PARP1 (unknown origin) by fluorescence analysis
[3] = target: T1, Protein mono-ADP-ribosyltransferase PARP10 (Homo sapiens, UniProt Q53GL7); experiment: Inhibition of PARP-10 (unknown origin) mediated ADP-ribosylation of SRPK2 by fluorescence analysis using 3 uM SRPK2 as a substrate
T1 sequence (Q53GL7 whole entry): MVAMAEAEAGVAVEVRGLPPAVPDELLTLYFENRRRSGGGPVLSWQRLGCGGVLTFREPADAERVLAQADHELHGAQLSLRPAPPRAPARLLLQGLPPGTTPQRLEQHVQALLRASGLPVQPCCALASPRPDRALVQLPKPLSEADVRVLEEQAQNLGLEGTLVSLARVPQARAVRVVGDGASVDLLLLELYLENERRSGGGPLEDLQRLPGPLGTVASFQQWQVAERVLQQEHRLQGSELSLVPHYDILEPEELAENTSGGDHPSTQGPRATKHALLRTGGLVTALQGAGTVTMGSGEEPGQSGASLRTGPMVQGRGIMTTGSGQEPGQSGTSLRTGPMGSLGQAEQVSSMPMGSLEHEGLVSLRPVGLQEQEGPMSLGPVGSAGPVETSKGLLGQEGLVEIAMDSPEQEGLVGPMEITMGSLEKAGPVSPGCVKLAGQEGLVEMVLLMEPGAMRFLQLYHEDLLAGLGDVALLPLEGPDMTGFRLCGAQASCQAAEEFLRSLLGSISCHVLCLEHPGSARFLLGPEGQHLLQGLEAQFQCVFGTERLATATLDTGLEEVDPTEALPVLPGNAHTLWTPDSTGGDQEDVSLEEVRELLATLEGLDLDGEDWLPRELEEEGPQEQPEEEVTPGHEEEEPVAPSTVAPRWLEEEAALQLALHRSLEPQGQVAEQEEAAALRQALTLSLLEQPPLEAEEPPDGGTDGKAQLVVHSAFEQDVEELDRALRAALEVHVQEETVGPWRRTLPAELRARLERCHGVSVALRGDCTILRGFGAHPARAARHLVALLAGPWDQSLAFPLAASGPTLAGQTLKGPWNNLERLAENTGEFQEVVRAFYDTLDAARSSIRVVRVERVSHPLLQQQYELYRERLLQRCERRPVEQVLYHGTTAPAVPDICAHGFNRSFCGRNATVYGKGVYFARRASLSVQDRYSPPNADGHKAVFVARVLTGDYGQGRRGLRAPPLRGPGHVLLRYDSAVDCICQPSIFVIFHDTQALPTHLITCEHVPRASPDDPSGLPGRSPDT

Chain of Poly [ADP-ribose] polymerase 1 (P09874 whole entry): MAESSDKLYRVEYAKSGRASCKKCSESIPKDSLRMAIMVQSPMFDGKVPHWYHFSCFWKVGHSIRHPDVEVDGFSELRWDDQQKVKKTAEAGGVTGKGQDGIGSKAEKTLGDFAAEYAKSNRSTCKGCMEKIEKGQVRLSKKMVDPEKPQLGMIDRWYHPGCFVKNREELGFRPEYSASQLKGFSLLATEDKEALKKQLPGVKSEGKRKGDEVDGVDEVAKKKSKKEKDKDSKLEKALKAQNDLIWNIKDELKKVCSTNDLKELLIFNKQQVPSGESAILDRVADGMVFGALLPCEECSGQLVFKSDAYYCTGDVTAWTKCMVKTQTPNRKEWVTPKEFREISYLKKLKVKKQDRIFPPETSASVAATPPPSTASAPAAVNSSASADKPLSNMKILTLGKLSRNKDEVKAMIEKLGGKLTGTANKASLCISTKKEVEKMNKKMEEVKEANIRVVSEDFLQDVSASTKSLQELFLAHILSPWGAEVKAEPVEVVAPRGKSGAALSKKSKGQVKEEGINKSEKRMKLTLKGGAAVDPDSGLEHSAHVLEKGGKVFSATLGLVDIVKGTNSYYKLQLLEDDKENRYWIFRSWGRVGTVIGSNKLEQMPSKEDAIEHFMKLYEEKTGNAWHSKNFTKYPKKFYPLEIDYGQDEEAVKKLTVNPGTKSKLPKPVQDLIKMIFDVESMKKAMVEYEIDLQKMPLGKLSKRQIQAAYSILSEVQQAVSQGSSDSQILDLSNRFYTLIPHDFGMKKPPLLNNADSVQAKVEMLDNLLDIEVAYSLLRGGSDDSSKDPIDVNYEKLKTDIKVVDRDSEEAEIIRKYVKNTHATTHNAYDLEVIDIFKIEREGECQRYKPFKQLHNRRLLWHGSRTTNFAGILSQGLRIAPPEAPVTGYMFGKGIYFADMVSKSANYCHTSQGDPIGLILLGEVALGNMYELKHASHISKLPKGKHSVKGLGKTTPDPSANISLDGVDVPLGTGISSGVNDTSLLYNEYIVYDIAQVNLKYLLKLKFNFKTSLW
Chain of Protein mono-ADP-ribosyltransferase PARP10 (Homo sapiens, UniProt Q53GL7, L926G) (Q53GL7 whole entry L926G): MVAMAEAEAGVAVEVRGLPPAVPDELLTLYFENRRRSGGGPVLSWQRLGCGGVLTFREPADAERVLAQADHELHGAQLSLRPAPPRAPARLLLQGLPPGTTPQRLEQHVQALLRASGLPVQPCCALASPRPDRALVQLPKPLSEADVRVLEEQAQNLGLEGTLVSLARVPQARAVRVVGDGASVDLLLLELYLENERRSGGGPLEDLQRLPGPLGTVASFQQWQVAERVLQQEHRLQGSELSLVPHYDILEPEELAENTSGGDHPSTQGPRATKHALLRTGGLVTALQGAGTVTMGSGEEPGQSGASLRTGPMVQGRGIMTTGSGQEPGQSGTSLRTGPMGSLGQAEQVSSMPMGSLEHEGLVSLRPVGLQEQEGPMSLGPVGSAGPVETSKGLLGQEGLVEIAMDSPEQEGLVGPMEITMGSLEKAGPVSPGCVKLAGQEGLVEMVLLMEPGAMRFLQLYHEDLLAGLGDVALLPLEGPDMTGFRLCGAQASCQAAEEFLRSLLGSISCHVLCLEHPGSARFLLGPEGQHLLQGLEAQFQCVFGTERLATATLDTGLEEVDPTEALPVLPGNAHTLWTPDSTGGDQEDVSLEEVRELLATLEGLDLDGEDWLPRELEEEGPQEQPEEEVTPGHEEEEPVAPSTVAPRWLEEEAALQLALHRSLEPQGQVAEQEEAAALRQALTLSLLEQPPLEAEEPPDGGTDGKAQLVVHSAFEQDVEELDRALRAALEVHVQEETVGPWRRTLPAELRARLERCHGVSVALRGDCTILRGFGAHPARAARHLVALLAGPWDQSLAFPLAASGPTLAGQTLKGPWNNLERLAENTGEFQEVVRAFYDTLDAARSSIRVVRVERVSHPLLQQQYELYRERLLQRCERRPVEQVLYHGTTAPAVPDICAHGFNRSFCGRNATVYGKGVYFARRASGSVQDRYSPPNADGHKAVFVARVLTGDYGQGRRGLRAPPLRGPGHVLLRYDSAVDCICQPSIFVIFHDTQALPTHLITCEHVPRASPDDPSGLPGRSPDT

Structure (SMILES)	pIC50 [1]	pIC50 [2]	pIC50 [3]
O=C1NCCc2ccc(Cl)cc21	4.79	4.00	< 4.00
O=C1NCCc2ccc(Br)cc21	5.07	< 4.00	< 4.00
Cc1ccc2c(c1)C(=O)NCC2	3.95	< 4.00	< 4.00
O=C1NCCc2ccc(C(F)(F)F)cc21	4.18	< 4.00	< 4.00
O=C1NCCc2ccc(O)cc21	< 4.52	–	–
COc1ccc2c(c1)C(=O)NCC2	3.76	< 4.00	< 4.00
